Experimental data taken from paper PMC12467068, “Design, Synthesis, and Computational Insights into PKMYT1 Inhibitors for the Treatment of Breast Cancer” (Biomedicines, 2025).
“Also recorded” adds a separate entry of the source.

Assays:
A549 cells = test: Anti-proliferative activity in low-expressing CCNE1 cells A549; type: cell-based
HCC1569 cells [1] = test: Cell apoptosis assay (Annexin V-FITC/PI flow cytometry); type: cell-based; design: Q1 / Q2 / Q3 / Q4: unit not given here
Description: HCC1569 cells (1 × 10^5/well) were seeded in 6-well plates and cultured for 24 h at 37 °C, 5% CO2. MY-14 at varying concentrations were added, followed by 5-day incubation. Cells were trypsinized and pelleted by centrifugation. Subsequent analysis was performed per the Medilunbio kit protocol: staining was conducted with propidium iodide (PI) and Annexin V-FITC. After 15 min incubation, samples were analyzed by flow cytometry.

HCC1569 cells [2] = test: Cell cycle assay (PI flow cytometry); type: cell-based
Description: HCC1569 cells (1 × 10^5/well) were seeded in 6-well plates and cultured for 24 h at 37 °C under 5% CO2. MY-14 at varying concentrations were added, followed by 5-day incubation. Cells were trypsinized, pelleted by centrifugation, and fixed with 70% ethanol. Subsequent staining was performed with propidium iodide (PI) and RNase A according to the Beyotime kit protocol. After 30 min incubation at 37 °C, samples were analyzed by flow cytometry.

OVCAR3 cells [3] = test: Cell cloning (colony formation) assay; type: cell-based; settings: OVCAR3, 14 days of incubation, varying concentrations
Description: OVCAR3 cells (4 × 10^3/well) were seeded into 6-well plates and incubated for 24 h at 37 °C in a 5% CO2 atmosphere. Compound MY-14 was then added at varying concentrations, followed by a 14-day incubation period. Subsequently, cells were fixed with a 4% paraformaldehyde solution and stained using crystal violet solution, after which colonies were quantified using ImageJ 1.54 software.

PKMYT1 = molecular target: T1, PKMYT1 (Homo sapiens, UniProt Q99640); test: PKMYT1 enzyme inhibition assay (LanthaScreen Eu kinase binding method); settings: mean of two separate experiments
T1 sequence (Q99640 1-499): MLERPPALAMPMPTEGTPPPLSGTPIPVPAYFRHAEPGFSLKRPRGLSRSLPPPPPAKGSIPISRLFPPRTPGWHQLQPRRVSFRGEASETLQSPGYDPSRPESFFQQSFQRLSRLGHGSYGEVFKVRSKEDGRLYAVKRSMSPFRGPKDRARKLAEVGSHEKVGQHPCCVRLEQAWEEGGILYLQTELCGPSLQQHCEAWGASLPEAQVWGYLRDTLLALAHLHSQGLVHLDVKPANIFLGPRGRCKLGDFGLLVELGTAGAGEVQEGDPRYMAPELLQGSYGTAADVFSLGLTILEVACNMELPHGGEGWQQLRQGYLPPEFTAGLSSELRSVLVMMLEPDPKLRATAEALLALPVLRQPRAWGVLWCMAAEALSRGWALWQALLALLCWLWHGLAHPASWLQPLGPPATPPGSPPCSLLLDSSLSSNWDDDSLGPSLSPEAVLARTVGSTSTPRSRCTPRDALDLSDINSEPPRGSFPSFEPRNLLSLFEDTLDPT
Description: The PKMYT1 kinase assay was conducted with the LanthaScreen™ Eu kinase binding method, as provided by Thermo Fisher Scientific (Waltham, MA, USA). Initially, compounds were prepared at a concentration of 4 mM in DMSO and subsequently diluted to various concentrations in 1X buffer. […] The plate was then incubated in the dark at 25 °C for 1 h, and fluorescence signals were recorded at 665 nm and 615 nm.

HCC1569 cells [4] = test: Cell proliferation assay (CCK-8), HCC1569; type: cell-based; settings: CCNE1-amplified breast cancer cells, 5-day incubation, mean ± SD, n = 3
Description: (§1) HCC1569 and OVCAR3 cells (2 × 10^3/well) were seeded in 96-well plates and cultured for 24 h at 37 °C, 5% CO2. Compounds at varying concentrations were added, followed by 5-day incubation. Cell viability was assessed using Cell Counting Kit-8 (CCK-8) with absorbance measurement at 450 nm. HCC1569 (BNCC341698) was purchased from BNCC and OVCAR3 (CL-0178) was purchased from Procell.

OVCAR3 cells [5] = test: Cell proliferation assay (CCK-8), OVCAR3; type: cell-based; settings: CCNE1-amplified ovarian cancer cells, 5-day incubation, mean ± SD, n = 3
Description: as §1

BEAS-2B cells = test: Anti-proliferative activity in normal lung epithelial cells BEAS-2B; type: cell-based

SMILES: CCOP(=O)(OCC)c1ccc(Nc2ncc(C(=O)Nc3c(C)ccc(O)c3C)c(N)n2)cc1 [MY-14]
- cytotoxicity (in words) (A549 cells; A549, CCNE1-low): did not exhibit cytotoxicity; also recorded: reduced cytotoxicity
- IC50 (A549 cells; Homo sapiens, A549, lung cancer cells, low CCNE1 expression, mean ± SD, n = 3): > 8000 nM
- apoptosis induction (in words) (HCC1569 cells [1]; HCC1569): induced apoptosis in a concentration-dependent manner; also recorded: induced apoptosis-mediated cell death
- Q1 (HCC1569 cells [1]; HCC1569, 0.5 μM): 4.66
- Q2 (HCC1569 cells [1]; HCC1569, 0.5 μM): 0.51
- Q3 (HCC1569 cells [1]; HCC1569, 0.5 μM): 18.6
- Q4 (HCC1569 cells [1]; HCC1569, 0.5 μM): 76.2
- Q1 (HCC1569 cells [1]; HCC1569, 1.0 μM): 3.91
- Q2 (HCC1569 cells [1]; HCC1569, 1.0 μM): 0.20
- Q3 (HCC1569 cells [1]; HCC1569, 1.0 μM): 21.2
- Q4 (HCC1569 cells [1]; HCC1569, 1.0 μM): 74.7
- Q1 (HCC1569 cells [1]; HCC1569, 2.0 μM): 4.24
- Q2 (HCC1569 cells [1]; HCC1569, 2.0 μM): 1.07
- Q3 (HCC1569 cells [1]; HCC1569, 2.0 μM): 40.4
- Q4 (HCC1569 cells [1]; HCC1569, 2.0 μM): 54.3
- Q1 (HCC1569 cells [1]; HCC1569, 4.0 μM): 4.11
- Q2 (HCC1569 cells [1]; HCC1569, 4.0 μM): 1.14
- Q3 (HCC1569 cells [1]; HCC1569, 4.0 μM): 46.3
- Q4 (HCC1569 cells [1]; HCC1569, 4.0 μM): 48.5
- maximal apoptotic rate (HCC1569 cells [1]; HCC1569, 5-day incubation): 47.44%
- cell-cycle arrest (in words) (HCC1569 cells [2]): arrested cell-cycle progression at the S-phase; also recorded: G1/S phase cell-cycle arrest
- distribution of G2/M-phase cells (in words) (HCC1569 cells [2]): no significant impact
- proportion of G1-phase cells (in words) (HCC1569 cells [2]): reducing the proportion of G1-phase cells
- proportion of S-phase cells (in words) (HCC1569 cells [2]): concentration-dependent increase in the proportion of S-phase cells
- colony formation (in words) (OVCAR3 cells [3]): inhibited colony formation in a dose-dependent manner
- IC50 (PKMYT1): 2.6 nM
- IC50 (HCC1569 cells [4]): 1060 ± 180 nM
- IC50 (HCC1569 cells [4]; Homo sapiens, HCC1569, 120 h): 1020 nM
- IC50 (OVCAR3 cells [5]): 800 ± 70 nM
- IC50 (OVCAR3 cells [5]; Homo sapiens, OVCAR-3, 120 h): 820 nM
- cytotoxicity (in words) (BEAS-2B cells; BEAS-2B lung epithelial cells): did not exhibit cytotoxicity; also recorded: reduced cytotoxicity
- IC50 (BEAS-2B cells; Homo sapiens, BEAS-2B, lung epithelial cells, mean ± SD, n = 3): > 8000 nM
